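Values below derive from 48-hour exposures of cells grown in 96-well plates, with endpoints linearly interpolated between the two concentrations bracketing the appropriate inhibition level. Here, GI50 denotes the concentration required for 50% inhibition of growth.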 Activity calls are given as the source filed them. No stated cut-off is given here; in the data, active = GI50 up to about 1.1 µM and inactive = higher.
Legend:
Test in all cases: NCI-60 cell line screen, 48 h
[1] = system: 786-0
[2] = system: A498
[3] = system: A549
[4] = system: ACHN
[5] = system: CAKI-1
[6] = system: CCRF-CEM
[7] = system: COLO 205
[8] = system: DLD-1
[9] = system: DMS-114
[10] = system: DMS-273
[11] = system: HCC 2998
[12] = system: HCT-116
[13] = system: HCT-15
[14] = system: HL-60
[15] = system: HOP-62
[16] = system: HOP-92
[17] = system: HT-29
[18] = system: IGROV-1
[19] = system: K562
[20] = system: KM-20L2
[21] = system: KM12
[22] = system: LOX IMVI
[23] = system: LXFL 529
[24] = system: M14
[25] = system: M19-MEL
[26] = system: MOLT-4
[27] = system: Malme-3M
[28] = system: NCI-H226
[29] = system: NCI-H460
[30] = system: NCI-H522
[31] = system: OVCAR-3
[32] = system: OVCAR-4
[33] = system: OVCAR-5
[34] = system: OVCAR-8
[35] = system: RXF 631
[36] = system: SF-268
[37] = system: SF-295
[38] = system: SK-MEL-2
[39] = system: SK-MEL-5
[40] = system: SK-OV-3
[41] = system: SN12C
[42] = system: SNB-19
[43] = system: SNB-75
[44] = system: SW-620
[45] = system: UACC-257
[46] = system: UACC-62
[47] = system: UO-31
[48] = system: XF498
[49] = system: HOP-18
[50] = system: NCI-H23
[51] = system: RPMI-8226
[52] = system: RXF 393
[53] = system: SF-539
[54] = system: SK-MEL-28
[55] = system: SNB-78
[56] = system: U-251

## CC12O[C@H](c3ccccc3)[C@H](c3ccccc3)N1C(=O)C1(C(=O)OCc3ccccc3)CC12 (some centres not stated)
[1]
  GI50: > 100 µM (inactive)
[2]
  GI50: > 100 µM (inactive)
[3]
  GI50: 22.3 µM (inactive)
[4]
  GI50: 60.3 µM (inactive)
[5]
  GI50: > 100 µM (inactive)
[6]
  GI50: 28.6 µM (inactive)
[7]
  GI50: 89.9 µM (inactive)
[8]
  GI50: 88.1 µM (inactive)
[9]
  GI50: 39.6 µM (inactive)
[10]
  GI50: 80 µM (inactive)
[11]
  GI50: > 100 µM (inactive)
[12]
  GI50: 98.2 µM (inactive)
[13]
  GI50: 86.5 µM
[14]
  GI50: 32.4 µM (inactive)
[15]
  GI50: > 100 µM (inactive)
[16]
  GI50: 23.5 µM (inactive)
[17]
  GI50: 76 µM (inactive)
[18]
  GI50: > 100 µM (inactive)
[19]
  GI50: 37.3 µM (inactive)
[20]
  GI50: 25.1 µM (inactive)
[21]
  GI50: 91 µM (inactive)
[22]
  GI50: > 100 µM (inactive)
[23]
  GI50: 26.6 µM (inactive)
[24]
  GI50: 64.7 µM (inactive)
[25]
  GI50: > 100 µM (inactive)
[26]
  GI50: 18.2 µM (inactive)
[27]
  GI50: > 100 µM (inactive)
[28]
  GI50: 36 µM (inactive)
[29]
  GI50: > 100 µM (inactive)
[30]
  GI50: 39.1 µM (inactive)
[31]
  GI50: > 100 µM (inactive)
[32]
  GI50: 79.1 µM (inactive)
[33]
  GI50: > 100 µM (inactive)
[34]
  GI50: 92.3 µM (inactive)
[35]
  GI50: > 100 µM (inactive)
[36]
  GI50: > 100 µM (inactive)
[37]
  GI50: > 100 µM (inactive)
[38]
  GI50: 33.3 µM (inactive)
[39]
  GI50: 88.7 µM (inactive)
[40]
  GI50: > 100 µM (inactive)
[41]
  GI50: > 100 µM (inactive)
[42]
  GI50: > 100 µM (inactive)
[43]
  GI50: > 100 µM (inactive)
[44]
  GI50: > 100 µM (inactive)
[45]
  GI50: 59.8 µM (inactive)
[46]
  GI50: > 100 µM (inactive)
[47]
  GI50: 41.2 µM (inactive)
[48]
  GI50: 78.9 µM (inactive)

## C/C(Cc1ccccc1)=N\NC(N)=S
[2]
  GI50: > 100 µM (inactive)
[4]
  GI50: > 100 µM (inactive)
[6]
  GI50: > 100 µM (inactive)
[7]
  GI50: > 100 µM (inactive)
[9]
  GI50: 76 µM (inactive)
[10]
  GI50: > 100 µM (inactive)
[13]
  GI50: > 100 µM
[14]
  GI50: > 100 µM (inactive)
[49]
  GI50: > 100 µM (inactive)
[16]
  GI50: 67.1 µM (inactive)
[18]
  GI50: > 100 µM (inactive)
[19]
  GI50: > 100 µM (inactive)
[20]
  GI50: > 100 µM (inactive)
[22]
  GI50: > 100 µM (inactive)
[23]
  GI50: > 100 µM (inactive)
[24]
  GI50: > 100 µM (inactive)
[25]
  GI50: > 100 µM (inactive)
[26]
  GI50: > 100 µM (inactive)
[50]
  GI50: > 100 µM (inactive)
[29]
  GI50: > 100 µM (inactive)
[32]
  GI50: > 100 µM (inactive)
[51]
  GI50: 92.9 µM (inactive)
[52]
  GI50: 70.1 µM (inactive)
[35]
  GI50: > 100 µM (inactive)
[53]
  GI50: > 100 µM (inactive)
[54]
  GI50: > 100 µM (inactive)
[40]
  GI50: > 100 µM (inactive)
[41]
  GI50: > 100 µM (inactive)
[42]
  GI50: > 100 µM (inactive)
[43]
  GI50: > 100 µM (inactive)
[55]
  GI50: > 100 µM (inactive)
[56]
  GI50: > 100 µM (inactive)
[46]
  GI50: > 100 µM (inactive)
[48]
  GI50: > 100 µM (inactive)

Source: ChEMBL document CHEMBL1201862, “PubChem BioAssay data set” (2004)
